In ChEMBL document CHEMBL5291721, “A preclinical secondary pharmacology resource illuminates target-adverse drug reaction associations of marketed drugs” (Nat Commun, 2023):

How the values were obtained:
[1] = target: T1, Type-1 angiotensin II receptor (Homo sapiens, UniProt P30556)
T1 sequence (P30556 whole entry): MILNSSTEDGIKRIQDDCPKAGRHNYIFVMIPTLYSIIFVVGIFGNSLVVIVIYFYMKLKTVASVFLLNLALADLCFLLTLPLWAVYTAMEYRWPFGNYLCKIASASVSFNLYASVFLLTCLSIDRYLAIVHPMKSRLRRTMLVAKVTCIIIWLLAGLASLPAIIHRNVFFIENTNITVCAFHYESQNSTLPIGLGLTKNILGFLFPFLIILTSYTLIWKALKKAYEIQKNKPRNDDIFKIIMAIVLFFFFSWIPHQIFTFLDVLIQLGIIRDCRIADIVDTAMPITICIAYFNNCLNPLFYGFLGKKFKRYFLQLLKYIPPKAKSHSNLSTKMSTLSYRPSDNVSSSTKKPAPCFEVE

[2] = target: T2, Equilibrative nucleoside transporter 1 (Homo sapiens, UniProt Q99808)
T2 sequence (Q99808 whole entry): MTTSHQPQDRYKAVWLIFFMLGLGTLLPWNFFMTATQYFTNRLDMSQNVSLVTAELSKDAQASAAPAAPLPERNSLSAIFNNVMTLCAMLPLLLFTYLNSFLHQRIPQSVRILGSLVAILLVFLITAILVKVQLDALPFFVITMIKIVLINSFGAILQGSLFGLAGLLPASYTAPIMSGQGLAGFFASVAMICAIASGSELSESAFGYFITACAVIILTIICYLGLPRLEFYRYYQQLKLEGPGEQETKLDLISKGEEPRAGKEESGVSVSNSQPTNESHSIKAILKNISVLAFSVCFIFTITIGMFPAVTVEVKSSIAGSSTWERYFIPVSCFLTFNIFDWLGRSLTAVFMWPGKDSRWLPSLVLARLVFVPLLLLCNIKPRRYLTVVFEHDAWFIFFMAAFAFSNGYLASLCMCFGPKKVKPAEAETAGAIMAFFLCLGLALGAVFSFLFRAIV

Cannabinoid receptor 1 = Cannabinoid receptor 1 (Homo sapiens, UniProt P21554); assay type: functional, cell-based
Chain of Cannabinoid receptor 1 (P21554 whole entry): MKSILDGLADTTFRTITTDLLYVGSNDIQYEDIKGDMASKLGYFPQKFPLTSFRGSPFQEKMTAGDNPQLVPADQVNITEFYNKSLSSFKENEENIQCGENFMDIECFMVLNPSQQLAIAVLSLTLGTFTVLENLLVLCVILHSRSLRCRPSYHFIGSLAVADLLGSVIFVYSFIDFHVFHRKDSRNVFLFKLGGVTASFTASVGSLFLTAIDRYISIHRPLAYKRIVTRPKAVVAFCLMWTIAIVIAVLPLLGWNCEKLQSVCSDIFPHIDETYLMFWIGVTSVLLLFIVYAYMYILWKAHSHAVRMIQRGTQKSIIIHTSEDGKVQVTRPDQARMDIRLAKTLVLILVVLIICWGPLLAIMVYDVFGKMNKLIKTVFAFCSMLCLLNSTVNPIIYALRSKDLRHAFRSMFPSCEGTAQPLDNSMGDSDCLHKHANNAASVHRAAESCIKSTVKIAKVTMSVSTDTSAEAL

[3] = target: Voltage-gated inwardly rectifying potassium channel KCNH2 (Homo sapiens, UniProt Q12809); assay type: functional
Chain of Voltage-gated inwardly rectifying potassium channel KCNH2 (Q12809 whole entry): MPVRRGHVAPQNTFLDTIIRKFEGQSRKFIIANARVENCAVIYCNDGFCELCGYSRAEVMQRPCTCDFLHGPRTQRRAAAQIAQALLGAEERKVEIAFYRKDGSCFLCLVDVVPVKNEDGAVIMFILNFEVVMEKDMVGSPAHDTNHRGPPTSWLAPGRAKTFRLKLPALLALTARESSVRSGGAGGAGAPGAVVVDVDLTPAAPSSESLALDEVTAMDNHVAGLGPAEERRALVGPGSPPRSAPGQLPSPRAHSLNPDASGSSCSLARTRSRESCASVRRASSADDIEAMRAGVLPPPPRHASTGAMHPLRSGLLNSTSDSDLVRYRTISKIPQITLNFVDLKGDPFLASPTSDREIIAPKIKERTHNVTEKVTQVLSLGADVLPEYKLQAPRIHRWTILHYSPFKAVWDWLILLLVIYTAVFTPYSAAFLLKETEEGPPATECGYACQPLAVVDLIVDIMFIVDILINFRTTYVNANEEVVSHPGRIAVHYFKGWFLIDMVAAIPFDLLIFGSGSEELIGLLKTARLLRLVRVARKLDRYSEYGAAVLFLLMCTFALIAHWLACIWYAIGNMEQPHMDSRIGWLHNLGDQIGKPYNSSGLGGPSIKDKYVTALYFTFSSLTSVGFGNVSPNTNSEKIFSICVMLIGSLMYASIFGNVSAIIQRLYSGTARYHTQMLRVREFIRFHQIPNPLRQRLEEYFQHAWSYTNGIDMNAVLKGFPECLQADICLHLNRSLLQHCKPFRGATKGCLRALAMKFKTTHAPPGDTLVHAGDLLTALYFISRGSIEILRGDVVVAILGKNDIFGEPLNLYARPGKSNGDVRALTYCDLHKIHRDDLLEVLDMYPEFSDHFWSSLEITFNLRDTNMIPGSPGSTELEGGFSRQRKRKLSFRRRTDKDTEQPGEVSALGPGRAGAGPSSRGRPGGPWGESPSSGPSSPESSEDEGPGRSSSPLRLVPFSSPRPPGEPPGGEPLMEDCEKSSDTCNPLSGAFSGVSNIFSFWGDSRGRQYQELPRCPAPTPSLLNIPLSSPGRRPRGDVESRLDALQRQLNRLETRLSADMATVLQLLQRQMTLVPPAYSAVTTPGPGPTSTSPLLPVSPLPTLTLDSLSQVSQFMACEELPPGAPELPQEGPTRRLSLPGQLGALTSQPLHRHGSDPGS

[4] = target: Glutamate receptor ionotropic, NMDA 1 (Rattus norvegicus, UniProt P35439)
[5] = target: Sodium-dependent noradrenaline transporter (Homo sapiens, UniProt P23975)
Chain of Sodium-dependent noradrenaline transporter (P23975 whole entry): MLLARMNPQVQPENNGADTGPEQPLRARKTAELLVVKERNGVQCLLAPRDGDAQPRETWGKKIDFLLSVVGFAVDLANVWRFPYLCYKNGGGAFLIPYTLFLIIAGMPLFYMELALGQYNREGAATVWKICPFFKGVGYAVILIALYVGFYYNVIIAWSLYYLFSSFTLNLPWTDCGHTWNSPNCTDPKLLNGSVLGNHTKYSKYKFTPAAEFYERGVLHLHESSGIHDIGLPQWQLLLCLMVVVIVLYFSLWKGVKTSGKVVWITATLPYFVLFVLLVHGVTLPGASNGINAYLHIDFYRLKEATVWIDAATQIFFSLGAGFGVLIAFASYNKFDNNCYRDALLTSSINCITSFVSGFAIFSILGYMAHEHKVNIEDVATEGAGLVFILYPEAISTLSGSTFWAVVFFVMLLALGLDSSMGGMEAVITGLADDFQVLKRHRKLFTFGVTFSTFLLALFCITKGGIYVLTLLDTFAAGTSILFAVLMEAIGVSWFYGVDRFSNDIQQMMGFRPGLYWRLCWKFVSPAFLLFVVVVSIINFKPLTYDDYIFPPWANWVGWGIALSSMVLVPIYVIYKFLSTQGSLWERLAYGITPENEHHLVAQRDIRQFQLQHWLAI

Melanocortin receptor 3 = Melanocortin receptor 3 (Homo sapiens, UniProt P41968)
Chain of Melanocortin receptor 3 (P41968 whole entry): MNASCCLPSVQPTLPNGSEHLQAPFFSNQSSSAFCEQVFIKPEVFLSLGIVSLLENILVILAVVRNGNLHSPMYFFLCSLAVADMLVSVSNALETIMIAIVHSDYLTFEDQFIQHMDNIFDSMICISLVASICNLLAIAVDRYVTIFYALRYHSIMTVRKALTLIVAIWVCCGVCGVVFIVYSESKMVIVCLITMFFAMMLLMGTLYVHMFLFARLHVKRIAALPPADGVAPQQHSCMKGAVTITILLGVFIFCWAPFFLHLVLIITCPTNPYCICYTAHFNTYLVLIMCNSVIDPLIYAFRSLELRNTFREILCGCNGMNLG

Adenosine receptor A3 = target: T3, Adenosine receptor A3 (Homo sapiens, UniProt P0DMS8)
T3 sequence (P0DMS8 whole entry): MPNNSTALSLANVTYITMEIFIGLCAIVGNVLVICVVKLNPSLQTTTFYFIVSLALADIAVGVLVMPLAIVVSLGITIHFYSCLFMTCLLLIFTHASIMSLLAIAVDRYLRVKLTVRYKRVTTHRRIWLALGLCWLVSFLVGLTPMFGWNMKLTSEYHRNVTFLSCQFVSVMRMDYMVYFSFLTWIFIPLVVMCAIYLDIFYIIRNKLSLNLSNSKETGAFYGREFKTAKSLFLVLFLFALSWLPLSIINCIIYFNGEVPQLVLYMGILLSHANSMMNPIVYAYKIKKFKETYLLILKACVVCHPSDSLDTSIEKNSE

[6] = target: T4, Muscarinic acetylcholine receptor M2 (Homo sapiens, UniProt P08172); assay type: functional, cell-based
T4 sequence (P08172 whole entry): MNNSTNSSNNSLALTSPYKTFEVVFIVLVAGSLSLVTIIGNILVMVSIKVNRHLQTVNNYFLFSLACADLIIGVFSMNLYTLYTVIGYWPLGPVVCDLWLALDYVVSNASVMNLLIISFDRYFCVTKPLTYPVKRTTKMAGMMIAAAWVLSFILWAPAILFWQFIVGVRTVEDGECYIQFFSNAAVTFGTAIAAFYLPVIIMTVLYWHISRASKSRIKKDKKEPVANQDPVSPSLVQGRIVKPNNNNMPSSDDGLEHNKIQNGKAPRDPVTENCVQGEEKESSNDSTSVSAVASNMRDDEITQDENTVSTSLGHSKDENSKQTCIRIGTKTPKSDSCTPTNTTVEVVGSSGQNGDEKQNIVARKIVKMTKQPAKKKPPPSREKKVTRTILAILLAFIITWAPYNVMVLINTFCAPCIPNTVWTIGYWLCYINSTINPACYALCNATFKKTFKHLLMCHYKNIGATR

Adenosine receptor A1 = target: T5, Adenosine receptor A1 (Homo sapiens, UniProt P30542)
T5 sequence (P30542 whole entry): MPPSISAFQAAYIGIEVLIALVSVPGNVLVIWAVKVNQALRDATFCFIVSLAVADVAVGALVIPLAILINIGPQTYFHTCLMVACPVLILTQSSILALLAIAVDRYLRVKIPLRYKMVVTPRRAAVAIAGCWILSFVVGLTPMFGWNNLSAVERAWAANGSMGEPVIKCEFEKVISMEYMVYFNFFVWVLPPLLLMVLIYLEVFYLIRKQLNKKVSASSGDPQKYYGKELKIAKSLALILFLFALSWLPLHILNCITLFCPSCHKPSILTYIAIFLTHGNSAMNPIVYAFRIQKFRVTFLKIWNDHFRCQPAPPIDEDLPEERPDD

[7] = target: T6, Alpha-2C adrenergic receptor (Homo sapiens, UniProt P18825); assay type: functional
T6 sequence (P18825 whole entry): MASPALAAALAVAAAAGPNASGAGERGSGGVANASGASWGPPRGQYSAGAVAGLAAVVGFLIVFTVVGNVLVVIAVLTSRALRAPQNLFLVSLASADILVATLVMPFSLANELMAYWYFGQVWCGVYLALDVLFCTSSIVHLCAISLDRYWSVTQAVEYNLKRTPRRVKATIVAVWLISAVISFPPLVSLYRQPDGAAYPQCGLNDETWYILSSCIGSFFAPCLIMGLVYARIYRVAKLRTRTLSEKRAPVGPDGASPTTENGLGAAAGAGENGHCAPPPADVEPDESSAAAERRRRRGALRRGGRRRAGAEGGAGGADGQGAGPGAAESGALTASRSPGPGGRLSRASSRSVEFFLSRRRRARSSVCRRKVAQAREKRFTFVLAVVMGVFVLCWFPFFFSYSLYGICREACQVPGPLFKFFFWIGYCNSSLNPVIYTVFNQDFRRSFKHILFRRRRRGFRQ
Further: assay procedure not described here.

Structure (SMILES)	AC50 [1] [µM]	AC50 [2] [µM]	AC50 (Cannabinoid receptor 1) [µM]	AC50 [3] [µM]	AC50 [4] [µM]	AC50 [5] [µM]	AC50 (Melanocortin receptor 3) [µM]	AC50 (Adenosine receptor A3) [µM]	AC50 [6] [µM]	AC50 (Adenosine receptor A1) [µM]	AC50 [7] [µM]
COc1cc(N)c(Cl)cc1C(=O)NC1CCN(Cc2ccccc2)CC1 [CLEBOPRIDE]	> 30	> 30	> 30	1.4	> 30	15	> 30	> 30	> 30	> 30	2.1
C[C@]12CC[C@@H]3c4ccc(O)cc4C[C@@H](CCCCCCCCC[S+]([O-])CCCC(F)(F)C(F)(F)F)[C@H]3[C@@H]1CC[C@@H]2O (stereo not given in full) [FULVESTRANT]	> 30	> 30	> 30	> 30	> 30	> 30	> 30	> 30	> 30	> 30	> 30
OC1(c2ccc(Cl)cc2)c2ccccc2C2=NCCN21 (stereo not given) [MAZINDOL]	> 30	> 30	> 30	> 30	> 30	0.027	> 30	9.6	> 30	> 30	> 30
COCC1=C(C(=O)O)N2C(=O)[C@@H](NC(=O)/C(=N\OC)c3csc(N)n3)[C@H]2SC1 [CEFPODOXIME]	> 30	> 30	> 30	> 30	> 30	> 30	> 30	> 30	> 30	> 30	> 30
CCC(=O)O[C@]1(C(=O)SCF)[C@H](C)C[C@H]2[C@@H]3C[C@H](F)C4=CC(=O)C=C[C@]4(C)[C@@]3(F)[C@@H](O)C[C@@]21C [FLUTICASONE PROPIONATE]	> 30	> 30	> 30	> 30	> 30	> 30	> 30	> 30	> 30	> 30	> 30
CC(C(=O)O)c1ccc(CC2CCCC2=O)cc1 (stereo not given) [LOXOPROFEN]	> 30	> 30	> 30	> 30	> 30	> 30	> 30	> 30	> 30	> 30	> 30
CC(CCc1ccc(O)cc1)NCCc1ccc(O)c(O)c1 (stereo not given) [DOBUTAMINE]	> 30	> 30	> 30	20.3	> 30	1.73	> 30	22.9	> 30	> 30	0.798
Clc1ccc2c(N3CCN(CCCN4CCN(c5ccnc6cc(Cl)ccc56)CC4)CC3)ccnc2c1 [PIPERAQUINE]	> 30	> 30	> 30	2.56	> 30	> 30	> 30	> 30	> 30	> 30	> 30
CC1(C)S[C@@H]2[C@H](NC(=O)[C@H](N)c3ccccc3)C(=O)N2[C@H]1C(=O)OCOC(=O)[C@@H]1N2C(=O)C[C@H]2S(=O)(=O)C1(C)C [SULTAMICILLIN]	> 30	> 30	> 30	> 30	> 30	> 30	> 30	> 30	> 30	> 30	> 30
CCCCC(=O)O[C@]1(C(=O)CO)[C@@H](C)C[C@H]2[C@@H]3CCC4=CC(=O)C=C[C@]4(C)[C@@]3(F)[C@@H](O)C[C@@]21C [BETAMETHASONE VALERATE]	> 30	> 30	> 30	> 30	> 10	> 30	> 30	> 30	> 10	> 30	> 10
CC(=O)N[C@@H](CS)C(=O)O [ACETYLCYSTEINE]	> 30	> 30	> 30	> 30	> 30	> 30	> 30	> 30	> 30	> 30	> 30
CCC1(c2ccccc2)CCC(=O)NC1=O (stereo not given) [GLUTETHIMIDE]	> 10	> 10	> 30	> 30	> 10	> 10	> 10	> 10	> 10	> 10	> 10
C/N=C(\NC)NCc1ccccc1 [BETHANIDINE]	> 30	> 30	> 30	> 30	> 30	> 30	> 30	> 30	> 30	> 30	> 30
CCC(=O)O[C@H]1CC[C@H]2[C@@H]3CCC4=CC(=O)CC[C@]4(C)[C@H]3CC[C@]12C [TESTOSTERONE PROPIONATE]	> 10	> 10	> 30	> 30	> 10	> 10	> 10	> 10	> 10	> 10	> 10
CCCN[C@H]1CCc2nc(N)sc2C1 [PRAMIPEXOLE]	> 30	> 30	> 30	> 30	> 10	> 30	> 30	> 30	> 10	> 30	> 10
